# From patent US8524861B2, “Treatment of bacterial infections” (priority 2004, dated 2013)
# “Also recorded” adds a separate entry of the source.
# Tests used:
# [1] = tested on: Pseudomonas aeruginosa (ATCC strain 9027); assay type: cell-based; settings: summary in description
# Description: Bacterial Stocks—ATCC derived stock bacteria were obtained from Oxoid Limited. Pseudomonas aeruginosa (ATCC strain 9027) or Staphylococcus aureus (ATCC strain 6538P) were obtained in ‘Cultiloop’ format. Stocks were prepared by inoculating 20 ml of LB broth with a single Cultiloop, and incubating overnight at 37° C. Cells present after overnight incubation were harvested by removing larger aggregates by centrifugation (3000 g, 10 minutes), and withdrawing 16 ml of the supernatant, which was likely to contain mainly planktonic bacteria. To this, 4 ml of sterile glycerol was added (the latter having been sterilised by autoclaving). The resultant suspension was divided between 15× 1 ml cryovials before freezing at −85° C.
# Preliminary experiments were carried out to estimate the amount to dilute bacterial stocks which when on addition of 25 μl of diluted stock to 100 μl of fresh LB broth would result in bacteria in log phase growth after overnight incubation at 37° C.
# (§1) The peptides were examined for antibacterial efficacy against Staphylococcus aureus. To test the efficacy of peptides, dilutions of test peptides or PBS (for use as a control) were prepared in LB broth, and 100 μl aliquots of these placed in 96-well plates. A vial of planktonic bacterial stock was thawed in a 37° C. incubator and diluted to the level previously determined which would produce log phase growth after overnight incubation (see above). 25 μl of this bacterial dilution was then added to the test wells (some wells containing LB broth without peptide were left without any bacterial inoculation, these being used as a blank). After overnight growth, the concentration of bacteria in individual wells was assessed by measuring absorbance at 620 nm, in a microplate spectrophotometer. The average absorbance of wells for specific concentrations of peptides was calculated, and from this the percentage inhibition (relative to untreated wells) was also calculated and plotted against concentration (along with an estimate of error on that % inhibition).
# Peptides in accordance with the invention were also examined for antibacterial efficacy against Pseudomonas aeruginosa using the same technique as described above to calculate the IC50 values.
# Points were obtained by dividing the average for six treated wells by the average for six untreated wells, and bars show an estimate of the error for these calculated values.
# (§2) The inventor constructed an expanded library of peptides derived from either apolipoprotein B or apolipoprotein E in order to further evaluate polypeptides in accordance with the invention. Further experiments were then conducted to investigate the antibacterial activity of this peptide library against the bacteria P. aeroginosa, S. aureus and S. pneumoniae. The methods used to determine the IC50 values for each peptide were as described in the Example 1.
# [2] = tested on: Staphylococcus aureus, Pseudomonas aeruginosa, and Streptococcus pneumoniae; assay: Antibacterial activity, overall statements over the test bacteria; assay type: cell-based
# Text: The inventors conducted exhaustive experiments to assess the antibacterial activity of peptides from apolipoproteins and derivatives thereof. Peptides and derivatives from ApoE and ApoB were a particular focus. […] Example 1 illustrates the efficacy of the polypeptides according to the invention compared to apoE141-149 and apoB3359-3367 (i.e. non-tandem repeats) and other peptides derived from apolipoproteins.
# The activity of polypeptides in accordance with the invention can be seen in Tables 5, 6, 7 and 8.
# as §1, §2
substance,measurement,setting,value
Ac-LRKLRKRLLLRKLRKRLL-NH2 [MU_10],"Effectiveness against Pseudomonadales, in particular P. aeruginosa, in words",[1],particularly effective
same,"Antibacterial activity, in words, bacterium not specified",[2],particularly effective; also recorded: much greater than that of MU43
